Test results: patent publication US20180177899A1, “HYDROPHILIC PARTICLES, METHOD FOR PRODUCING THE SAME, AND CONTRAST AGENT UTILIZING SAME” (Korea Basic Science Institute, priority 2015, published 2018)

Key:
[1] = Surface charge (zeta potential) by particle size surface charge analyzer; type: physicochemical; settings: aqueous phase
Protocol: The surface charge of the nanoparticle of Example 2 was measured using a particle size surface charge analyzer (Zetasizer Nano-ZS, […]). In addition, the surface charge of a pure indocyanine green solution was measured using the particle size surface charge analyzer.

[2] = Optical stability under continuous 785 nm laser irradiation; type: physicochemical; settings: 30 minutes
Protocol: A slide glass on which the nanoparticle of Example 4 was spin coated thereon was prepared. A region of the slide glass was selected, and was continuously irradiated by 785 nm laser for 30 minutes.
FIGS. 14A to 14D are a single particle fluorescence images showing the optical stability of an up-conversion nanoparticle coated with indocyanine green.

CC1(C)C(/C=C/C=C/C=C/C=C2\N(CCCCS(=O)(=O)O)c3ccc4ccccc4c3C2(C)C)=[N+](CCCCS(=O)(=O)[O-])c2ccc3ccccc3c21 [indocyanine green]
surface charge [1]: −25.1 mV | fluorescence signal of indocyanine green after laser irradiation (optical stability) [2]: relatively much reduced or disappeared after 30 minutes
